In patent US4698419A, “Hexapeptide” (Vsesojuzny Kardiologichesky Nauchny Tsentr Akademii …, priority 1984, dated 1987):
No end group written: not given here.

Key:
[1] = system: acute hepatitis induced by D-galactosamine hydrochloride; experiment: Acute hepatitis induced by D-galactosamine hydrochloride in mice, plasma enzymes; assay type: in vivo, male mice of the line Balb C; conditions: for Concentration of alanine transaminase / Concentration of glutamatedehydrogenase: mouse blood plasma, D-galactosamine hydrochloride 700 mg/kg i.p., hexapeptide 100 μg/kg or prednisolone 5 mg/kg hypodermally, repeated after 6 hours
Procedure: The study of a hepatoprotective effect of the hexapeptide according to the present invention was carried out in comparison with prednisolone on male mice of the line Balb C.
The development of acute hepatitis was induced in mice subjected to a 12-hours' starving by means of D-galactosamine hydrochloride which was administered intraperitoneally diluted in 0.1 ml of a physiological solution in the dose of 700 mg/kg. The control group of animals was administered intraperitoneally with 0.1 ml of a physiological solution. The animals given D-galactosoamine hydrochloride were injected, immediately after its administration, with the hexapeptide according to the present invention (100 μg/kg), prednisolone (5 mg/kg) or a physiological solution (0.1 ml) hypodermally. Repeated injections of the test preparations were made after 6 hours. Each of the groups consisted of 12 animals. The mice were slaughtered by decapitation, blood was collected and in its plasma concentrations of alanine transaminase and glutametedehydrogenase were determined.
The statistical processing of the results obtained was effected using t-criterion. The certain value was regarded as the dirrerence at the level of 95% (at P<0.05).

[2] = system: acute liver injury induced by carbon tetrachloride; experiment: Acute liver injury induced by carbon tetrachloride in rats, blood enzymes and lethality; assay type: in vivo, male rats of the V-star line; conditions: for Number of rats survived after 48 hours: groups of 13; for Lethality: comparison of the hexapeptide with somatostatin; for Concentration of alanine transaminase / Concentration of glutamatedehydrogenase: rat blood, CCl4, repeated after 6, 24 and 30 hours
Procedure: The hexapeptide according to the present invention was also studied on an experimental model of an acute liver injury in male rats of the V-star line induced by means of carbon tetrachloride. After a 12-hours' starvation the rats were given CCl4 in the concentration of […] diluted in olive oil intraperitoneally. After administration of CCl4 the rats were injected with the hexapeptide according to the present invention in different doses (10, 30, 100 and 300 μg/kg). Repeated injections of the hexapeptide according to the invention were effected after 6, 24, and 30 hours. The control group of animals was given, instead of the hexapeptide of this invention, a physiological solution (0.2 ml). All the test groups of animals consisted of 13 rats. Concentrations of alanine transaminase and glutamatedehydrogenase were determined in the rats blood.
A statistical processing in the case of liver injury caused by carbon tetrachloride in respect of the enzymes was effected using t-criterion, while in respect of lethality--by means of .chi.^2 criterion.

Acute toxicity LD50 = conditions: in vivo
[3] = Cell composition of the blood and basic hemodynamic characteristics in all experiments; assay type: in vivo; conditions: all of the experiments with the hexapeptide
Solubility of the powder = assay type: physicochemical
Procedure: The hexapeptide according to the present invention comprises a white powder well soluble in distilled water, physiological solution, ethanol, insoluble in ether, ethylacetate, benzene. Melting point is 154°-156° C., (α)D^25 =+8.4 (with 0.5 H2 O).

Q: With “FAGFGR [hexapeptide of this invention, phenylalanyl-alanyl-glycyl-phenylalanyl-glycylarginine]” as the compound, how does the “Effect on the increase of concentrations of alanine transaminase” value ([1]; D-galactosamine mice, 100 μg/kg) read?
A: The value was “substantially fully blocked the increase”.

Q: And the “Reduction of the concentration of glutamatedehydrogenase” value ([1]; D-galactosamine mice, 100 μg/kg, versus D-galactosamine + physiological solution)?
A: Its value is 2 times.

Q: What about the “Concentration of alanine transaminase” value [1] of the same compound?
A: Its value is 115.4 ± 5.2 JU/e.

Q: What about the Concentration of glutamatedehydrogenase [1] of the same compound?
A: Its Concentration of glutamatedehydrogenase is 62.8 ± 4.9 JU/e.

Q: What about the “Effect on both parameters (alanine transaminase, glutamatedehydrogenase)” value ([2]; CCl4 rats, 10-300 μg/kg) of the same compound?
A: The value was “lowers both parameters depending on the dose”.

Q: And the “Number of rats survived after 48 hours” value ([2]; CCl4 rats, dose 10 μg/kg)?
A: The value was 6.

Q: What about the “Number of rats survived after 48 hours” value ([2]; CCl4 rats, dose 30 μg/kg) of the same compound?
A: The value was 9.

Q: And the “Number of rats survived after 48 hours” value ([2]; CCl4 rats, dose 100 μg/kg)?
A: Its value is 13.

Q: What about the “Number of rats survived after 48 hours” value ([2]; CCl4 rats, dose 300 μg/kg) of the same compound?
A: The value was 13.

Q: What about the “Lethal cases (%)” value ([2]; CCl4 rats, dose 10 μg/kg) of the same compound?
A: Its value is 54%.

Q: And the “Lethal cases (%)” value ([2]; CCl4 rats, dose 30 μg/kg)?
A: Its value is 30%.

Q: And the “Lethal cases (%)” value ([2]; CCl4 rats, dose 100 μg/kg)?
A: Its value is 0%.

Q: And the “Lethal cases (%)” value ([2]; CCl4 rats, dose 300 μg/kg)?
A: The value was 0%.

Q: What about the Lethal cases ([2]; CCl4 rats, doses of 100 and 300 μg/kg) of the same compound?
A: Its Lethal cases is “no lethal cases are observed”.

Q: And the Lethality [2]?
A: Its Lethality is 0%.

Q: And the Maximum effective dose ([2]; comparison with somatostatin)?
A: The Maximum effective dose was 0.1 mg/kg.

Q: What about the “Maximum effective dose lower than that of somatostatin” value ([2]; hexapeptide versus somatostatin) of the same compound?
A: The value was 15 times.

Q: What about the “Concentration of alanine transaminase” value ([2]; 10 μg/kg) of the same compound?
A: The value was 4141.5 ± 1094.8 JU/e.

Q: What about the Concentration of glutamatedehydrogenase ([2]; 10 μg/kg) of the same compound?
A: Its Concentration of glutamatedehydrogenase is 1962.0 ± 494.7 JU/e.

Q: What about the “Concentration of alanine transaminase” value ([2]; 30 μg/kg) of the same compound?
A: The value was 3037.8 ± 580.8 JU/e.

Q: And the Concentration of glutamatedehydrogenase ([2]; 30 μg/kg)?
A: Its Concentration of glutamatedehydrogenase is 1487.3 ± 301.5 JU/e.

Q: What about the “Concentration of alanine transaminase” value ([2]; 100 μg/kg) of the same compound?
A: The value was 2339.8 ± 333.4 JU/e.

Q: And the Concentration of glutamatedehydrogenase ([2]; 100 μg/kg)?
A: The Concentration of glutamatedehydrogenase was 874.3 ± 118.3 JU/e.

Q: And the “Concentration of alanine transaminase” value ([2]; 300 μg/kg)?
A: The value was 2110.1 ± 374.5 JU/e.

Q: And the Concentration of glutamatedehydrogenase ([2]; 300 μg/kg)?
A: Its Concentration of glutamatedehydrogenase is 603.3 ± 118.0 JU/e.

Q: What about the “Acute toxicity LD50” value (Acute toxicity LD50) of the same compound?
A: The value was 120 mg/kg.

Q: What about the “Changes on the part of basic hemodynamic characteristics” value [3] of the same compound?
A: Its value is “no changes were observed”.

Q: And the “Changes on the part of the cell composition of the blood” value [3]?
A: Its value is “no changes were observed”.

Q: What about the Solubility (Solubility of the powder; benzene) of the same compound?
A: The Solubility was “insoluble”.

Q: What about the Solubility (Solubility of the powder; distilled water) of the same compound?
A: The Solubility was “well soluble”.

Q: And the Solubility (Solubility of the powder; ethanol)?
A: The Solubility was “well soluble”.

Q: And the Solubility (Solubility of the powder; ether)?
A: Its Solubility is “insoluble”.

Q: And the Solubility (Solubility of the powder; ethylacetate)?
A: Its Solubility is “insoluble”.

Q: What about the Solubility (Solubility of the powder; physiological solution) of the same compound?
A: The Solubility was “well soluble”.

Q: With C[C@H](N)C(=O)NCC(=O)N[C@H]1CSSC[C@@H](C(=O)O)NC(=O)[C@H](CO)NC(=O)[C@H]([C@@H](C)O)NC(=O)[C@H](Cc2ccccc2)NC(=O)[C@H]([C@@H](C)O)NC(=O)[C@H](CCCCN)NC(=O)[C@H](Cc2c[nH]c3ccccc23)NC(=O)[C@H](Cc2ccccc2)NC(=O)[C@H](Cc2ccccc2)NC(=O)[C@H](CC(N)=O)NC(=O)[C@H](CCCCN)NC1=O [somatostatin, reference compound] as the compound, how does the Lethality [2] read?
A: The Lethality was 20%.

Q: And the Maximum effective dose ([2]; comparison with the hexapeptide)?
A: The Maximum effective dose was 1.5 mg/kg.

Q: With C[C@]12C=CC(=O)C=C1CC[C@@H]1[C@@H]2[C@@H](O)C[C@@]2(C)[C@H]1CC[C@]2(O)C(=O)CO [prednisolone, reference compound] as the compound, how does the “Effect on the values of the studied parameters (alanine transaminase, glutamatedehydrogenase)” value ([1]; D-galactosamine mice, prednisolone 5 mg/kg) read?
A: Its value is “a trend was observed towards reducing”.

Q: What about the “Effect on the concentration of the enzymes” value ([1]; conventionally employed parenteral dose) of the same compound?
A: Its value is “does not provide any pronounced effect”.

Q: What about the “Concentration of alanine transaminase” value [1] of the same compound?
A: Its value is 151.2 ± 14.3 JU/e.

Q: And the Concentration of glutamatedehydrogenase [1]?
A: The Concentration of glutamatedehydrogenase was 104.5 ± 10.1 JU/e.
